Where a name gives a salt, the structure may show the parent alone.
Experiments:
[1] = Hypoxia test (rat), reduced pressure, survival time; type: in vivo, rats (wister-strain); settings: reduced pressure 145 mmHg
Description: (§1) Male mice (dd-strain) and rats (wister-strain) were taken to a closed room which was filled with a gas mixture consisting of 1.5 % oxygen and 98.5 % nitrogen, or was conditioned in reduced atmospheric pressure (145 mmHg). In the other hand, mice and rats were given sodium cyanide (10 mg/kg, i.p.). These animals died after a few minutes in such conditions. 1-(3'-Pyridyl)-3-(2'-hydroxyethyl)thiourea HCl was given 1 hour before these hypoxia tests.
(§2) In the Tables data mean the increase percent of the survival time to that of control.

[2] = Haemodynamic action in anesthetized dogs; type: in vivo
Description: To study of 1-(3'-pyridyl)-3-(2'-hydroxyethyl)thiourea HCl on the haemodynamic action, five dogs of either sex were used under sodium pentobarbital anesthesia (30 mg/kg i.v.), the common carotid artery blood flow and the femoral artery blood flow were measured by the electromagnetic flow meter and the systolic blood pressure in the femoral artery was recorded with the pressure transducer.

phosphorylase = assay: Brain phosphorylase after triethyl tin sulfate cerebral edema; type: in vivo; settings: rats
Description: (§3) Cerebral edema was induced in rats by a triethyl tin sulfate (5.0 mg/kg, i.p.) made on the whole brain. Edema was measured by the increase in water content, lactate, phosphorylase activity and the decrease in glycogen, Na^+, K^+ - ATPase activity of the whole brain.
(§4) 1-(3'-Pyridyl)-3-(2'-hydroxyethyl)thiourea HCl was given 1 hour before and 24, 48 hours after the lesion treatment and the animals were killed by decapitation 72 hours after the lesion treatment.

[3] = Hypoxia test (mouse), KCN, survival time; type: in vivo, male mice (dd-strain); settings: KCN 10 mg/kg i.p.
[4] = Brain water content after triethyl tin sulfate cerebral edema; type: in vivo; settings: rats; for H2O, Gray: gray matter; for H2O, White: white matter
Description: as §3, §4

[5] = system: distribution of ^14 C - glucose to brain; assay: Distribution of ^14 C - glucose(U) to brain; type: in vivo, mouse; settings: for ^14 C-glucose, Brain / ^14 C-glucose, Brain/Plasma / ^14 C-glucose, Plasma: mouse, 300 mg/kg oral
Description: ^14 C - glucose(U) was given intravenously (1.0 μC/mouse), and the animals were killed by decapitation 10 minutes after ^14 C - glucose administration. 1-(3'-Pyridyl)-3-(2'-hydroxyethyl)thiourea HCl was given orally 300 mg/kg before ^14 C - glucose administration.

[6] = system: cerebral carbohydrate and lactate metabolism; assay: Brain glycogen and lactate after triethyl tin sulfate cerebral edema; type: in vivo; settings: rats
Description: as §3, §4

[7] = system: cardiac carbohydrate, lactate and fat; assay: Cardiac carbohydrate, lactate and fat under the influence of isoproterenol in an anoxic condition; type: in vivo, male rats of wister-strain; settings: rats, 1.0 mg/kg i.v.
Description: Male rats of wister - strain served as experimental animals. Isoproterenol in a dose of 3.0 μg/kg was injected intravenously to the animals, and 5 minutes later, the rat was taken to a closed room which was filled with a mixture gas consisting of 5 % oxygen and 95 % nitrogen. After the rat was kept in the above mentioned gas chamber for 5 minutes, they were killed by cervical dislocation. The anoxic state of the heart was measured by the cardiac carbohydrate (glycogen, pyruvate), lactate and fat [non-esterifiedfatty acid (hereinafter, referred to as NEFA), triglyceride (hereinafter, referred to as TG)].

Na^+, K^+ - ATPase [8] = assay: Cerebral Na^+, K^+ - ATPase after cold injury (freezing lesion cerebral edema); type: in vivo; settings: rats
Description: Cerebral edema was induced in rats by a freezing lesion (dry ice) made on the exposed dura of unilateral hemisphere. Edema was measured by the increase in water content of gray and white matter, the increase in phosphorylase activity and the decrease in Na^+, K^+ - ATPase activity of the injured brain. 1-(3'-Pyridyl)-3-(2'-hydroxyethyl)thiourea HCl was given 1 hour before and 24 hours after, and the animals were killed by decapitation 48 hours after the lesion treatment.

[9] = Prolonging effect on lethal time under various hypoxic conditions (mice and rats, all tests together); type: in vivo, mice (dd-strain) and rats (wister-strain); settings: 100, 300 mg/kg p.o., 100 mg/kg s.c., and 30 mg/kg i.v.
Na^+, K^+ - ATPase [10] = assay: Brain Na^+, K^+ - ATPase after triethyl tin sulfate cerebral edema; type: in vivo; settings: rats
Description: as §3, §4

[11] = Hypoxia test (mouse), reduced pressure, survival time; type: in vivo, male mice (dd-strain); settings: reduced pressure 145 mmHg
Description: as §1, §2

[12] = heart, 5 minutes before isoproterenol
[13] = heart, 10 minutes before isoproterenol
[14] = heart, 30 minutes before isoproterenol
[15] = heart, 60 minutes before isoproterenol

OCCNC(=S)Nc1cccnc1 [1-(3'-pyridyl)-3-(2'-hydroxyethyl)thiourea hydrochloride]
increase percent of the survival time to that of control ([1]; 30 mg/kg i.v.): 135%
increase percent of the survival time to that of control ([1]; 100 mg/kg s.c.): 132%
haemodynamic effects in comparison with papaverine hydrochloride [2]: relatively weak
action to the common carotid artery blood flow ([2]; 0.1 - 1.0 mg/kg intra-common carotid artery): 12 - 39%
carotid artery blood flow increase ([2]; 3 - 30 mg/kg intravenously): 6 - 24%
femoral artery blood flow increase ([2]; 3 - 30 mg/kg intravenously): 4 - 18%
blood pressure decrease ([2]; 3 - 30 mg/kg intravenously, systolic, femoral artery): 8 - 14%
Phosphorylase A/T × 100 (Active phosphorylase/Total phosphorylase) (phosphorylase; 30 mg/kg p.o.): 73.3
Phosphorylase, Active (phosphorylase; 30 mg/kg p.o.): 0.197 units/g
Phosphorylase A/T × 100 (Active phosphorylase/Total phosphorylase) (phosphorylase; 100 mg/kg p.o.): 71.5
Phosphorylase, Active (phosphorylase; 100 mg/kg p.o.): 0.192 units/g
Phosphorylase A/T × 100 (Active phosphorylase/Total phosphorylase) (phosphorylase; 300 mg/kg p.o.): 67.8
Phosphorylase, Active (phosphorylase; 300 mg/kg p.o.): 0.187 units/g
increase percent of the survival time to that of control ([3]; 30 mg/kg i.v.): 185%
increase percent of the survival time to that of control ([3]; 30 mg/kg p.o.): 42%
increase percent of the survival time to that of control ([3]; 100 mg/kg p.o.): 189%
increase percent of the survival time to that of control ([3]; 100 mg/kg s.c.): 254%
increase percent of the survival time to that of control ([3]; 300 mg/kg p.o.): 287%
H2O, Gray ([4]; 30 mg/kg p.o.): 81.6%
H2O, White ([4]; 30 mg/kg p.o.): 79.5%
H2O, Gray ([4]; 100 mg/kg p.o.): 80.2%
H2O, White ([4]; 100 mg/kg p.o.): 78.3%
H2O, Gray ([4]; 300 mg/kg p.o.): 79.4%
H2O, White ([4]; 300 mg/kg p.o.): 77.8%
distribution of ^14 C - glucose to brain ([5]; 300 mg/kg orally, given 60 - 120 minutes before ^14 C - glucose): increased
^14 C-glucose, Brain ([5]; 30 min before ^14 C-glucose): 88.90 ± 12.69 × 10^3 dpm/g
^14 C-glucose, Brain/Plasma ([5]; 30 min before ^14 C-glucose): 2.52 ± 0.59
^14 C-glucose, Plasma ([5]; 30 min before ^14 C-glucose): 35.22 ± 2.36 × 10^3 dpm/ml
^14 C-glucose, Brain ([5]; 60 min before ^14 C-glucose): 93.76 ± 5.33 × 10^3 dpm/g
^14 C-glucose, Brain/Plasma ([5]; 60 min before ^14 C-glucose): 2.48 ± 0.44
^14 C-glucose, Plasma ([5]; 60 min before ^14 C-glucose): 37.88 ± 3.15 × 10^3 dpm/ml
^14 C-glucose, Brain ([5]; 120 min before ^14 C-glucose): 96.80 ± 6.80 × 10^3 dpm/g
^14 C-glucose, Brain/Plasma ([5]; 120 min before ^14 C-glucose): 2.69 ± 0.15
^14 C-glucose, Plasma ([5]; 120 min before ^14 C-glucose): 35.93 ± 0.95 × 10^3 dpm/ml
Glycogen ([6]; 30 mg/kg p.o.): 1.03 mg/g
Lactate ([6]; 30 mg/kg p.o.): 72.5 µg/g
Glycogen ([6]; 100 mg/kg p.o.): 1.17 mg/g
Lactate ([6]; 100 mg/kg p.o.): 65.5 µg/g
Glycogen ([6]; 300 mg/kg p.o.): 1.27 mg/g
Lactate ([6]; 300 mg/kg p.o.): 61.0 µg/g
effect on the decrease in glycogen level of the injured brain ([6]; 100 and 300 mg/kg orally): antagonized
effect on the increase in lactate level of the injured brain ([6]; 100 and 300 mg/kg orally): antagonized
effect on the increase in NEFA level ([7]; heart): antagonized
effect on the increase in lactate level ([7]; heart): antagonized
effect on the increase in pyruvate level ([7]; heart): antagonized
Glycogen [7, 12]: 5.68 ± 0.45 mg/g
Lactate [7, 12]: 123.2 ± 10.7 µg/g
NEFA [7, 12]: 4.26 ± 0.35 µM/g
Pyruvate [7, 12]: 38.4 ± 2.42 µg/g
TG [7, 12]: 2.15 ± 0.21 mg/g
Glycogen [7, 13]: 6.05 ± 0.51 mg/g
Lactate [7, 13]: 95.1 ± 8.2 µg/g
NEFA [7, 13]: 4.12 ± 0.29 µM/g
Pyruvate [7, 13]: 29.5 ± 3.15 µg/g
TG [7, 13]: 1.98 ± 0.13 mg/g
Glycogen [7, 14]: 6.97 ± 0.41 mg/g
Lactate [7, 14]: 92.5 ± 9.7 µg/g
NEFA [7, 14]: 3.87 ± 0.32 µM/g
Pyruvate [7, 14]: 25.2 ± 2.07 µg/g
TG [7, 14]: 1.87 ± 0.19 mg/g
Glycogen [7, 15]: 5.92 ± 0.62 mg/g
Lactate [7, 15]: 140.6 ± 12.3 µg/g
NEFA [7, 15]: 4.58 ± 0.36 µM/g
Pyruvate [7, 15]: 39.3 ± 2.76 µg/g
TG [7, 15]: 2.25 ± 0.18 mg/g
effect on the decrease in cardiac glycogen content [7]: antagonized
significance of the antagonizing effect ([7]; administered 10 - 30 minutes before isoproterenol): significantly
ATPase (Na^+, K^+ - ATPase [8]; 100 mg/kg p.o.): 1.180 ± 0.094 μ moles Pi/g/hr
ATPase (Na^+, K^+ - ATPase [8]; 300 mg/kg p.o.): 1.226 ± 0.080 μ moles Pi/g/hr
effect on the decrease in Na^+, K^+ - ATPase activity (Na^+, K^+ - ATPase [8]; 300 mg/kg p.o.): protective effect
survival in comparison with the survival time of each control group [9]: survived twice or more
ATPase (Na^+, K^+ - ATPase [10]; 30 mg/kg p.o.): 1.146 μ moles Pi/g/hr
ATPase (Na^+, K^+ - ATPase [10]; 100 mg/kg p.o.): 1.193 μ moles Pi/g/hr
ATPase (Na^+, K^+ - ATPase [10]; 300 mg/kg p.o.): 1.246 μ moles Pi/g/hr
effect on the decrease in Na^+, K^+ - ATPase activity of the injured brain (Na^+, K^+ - ATPase [10]; 100 and 300 mg/kg orally): antagonized
increase percent of the survival time to that of control ([11]; 30 mg/kg i.v.): 141%
increase percent of the survival time to that of control ([11]; 30 mg/kg p.o.): 35%
increase percent of the survival time to that of control ([11]; 100 mg/kg p.o.): 64%
increase percent of the survival time to that of control ([11]; 100 mg/kg s.c.): 128%
increase percent of the survival time to that of control ([11]; 300 mg/kg p.o.): 132%
